Measured values published in ChEMBL document CHEMBL1150547, “-Phenoxyphenylacetic acid derived angiotensin II antagonists with low nanomolar AT1/AT2 receptor subtype affinity (Part II)” (Bioorg Med Chem Lett, 1995).
pIC50: −log10 of the molar value.

Legend:
[1] = biological target: T1, Type-1 angiotensin II receptor (Oryctolagus cuniculus, UniProt P34976); assay: Tested for its ability to displace the specific binding ligand [125I]-Sar 1,lle8-AlI from rabbit aortic membrane (AT1 receptor)
T1 sequence (P34976 whole entry): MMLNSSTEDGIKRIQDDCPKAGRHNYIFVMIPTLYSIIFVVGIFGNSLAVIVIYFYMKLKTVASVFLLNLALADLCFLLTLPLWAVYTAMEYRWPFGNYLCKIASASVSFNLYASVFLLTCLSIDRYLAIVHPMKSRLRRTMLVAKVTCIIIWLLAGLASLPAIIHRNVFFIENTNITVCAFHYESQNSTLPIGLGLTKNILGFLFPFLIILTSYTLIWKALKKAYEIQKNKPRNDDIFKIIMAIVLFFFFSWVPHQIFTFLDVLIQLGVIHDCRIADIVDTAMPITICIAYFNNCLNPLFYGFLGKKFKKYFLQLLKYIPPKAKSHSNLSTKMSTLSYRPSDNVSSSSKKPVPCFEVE

[2] = biological target: T2, Type-2 angiotensin II receptor (Rattus norvegicus, UniProt P35351); assay: Tested for its ability to displace the specific binding ligand [125I]-Sar 1,lle8-AlI from rat midbrain membrane (AT2 receptor); type: tissue-based
T2 sequence (P35351 whole entry): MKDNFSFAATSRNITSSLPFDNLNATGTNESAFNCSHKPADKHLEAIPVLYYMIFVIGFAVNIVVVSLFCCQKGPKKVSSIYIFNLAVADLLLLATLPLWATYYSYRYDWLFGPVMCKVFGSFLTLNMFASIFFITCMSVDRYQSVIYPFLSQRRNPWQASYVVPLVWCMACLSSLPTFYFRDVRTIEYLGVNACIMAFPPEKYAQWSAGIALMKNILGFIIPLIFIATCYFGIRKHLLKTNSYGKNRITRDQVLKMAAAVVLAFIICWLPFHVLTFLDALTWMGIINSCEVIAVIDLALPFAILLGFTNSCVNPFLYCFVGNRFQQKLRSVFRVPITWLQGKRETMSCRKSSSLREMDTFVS

Structure (SMILES) | pIC50 [1] | pIC50 [2]
CCOc1cc(Cn2c(CC)nc3c(C)cc(C)nc32)ccc1OC(C(=O)O)c1ccccc1 (centres undefined) | 6.85 | 5.92
CCc1nc2c(C)cc(C)nc2n1Cc1cc(Cl)c(OC(C(=O)O)c2ccccc2)c(OC)c1 (centres undefined) | 7.80 | 5.11
CCCCc1nc2ccccc2n1Cc1ccc(OC(C(=O)O)c2ccccc2)cc1 (centres undefined) | 7.03 | 5.70
CCc1nc2c(C)cc(C)nc2n1Cc1ccc(OC(C(=O)O)c2ccccc2)cc1 (centres undefined) | 7.54 | 5.70
C=CCc1cc(Cn2c(CC)nc3c(C)cc(C)nc32)cc(Cl)c1OC(C(=O)O)c1ccccc1 (centres undefined) | 8.66 | 6.12
CCc1nc2c(C)cc(C)nc2n1Cc1ccc(OC(C(=O)O)c2ccccc2)c(C)c1 (centres undefined) | 7.85 | 6.03
CCc1nc2c(C)cc(C)nc2n1Cc1ccc(OC(C(=O)O)c2ccccc2)c(OC)c1 (centres undefined) | 6.77 | 5.54
CCCCc1cc(Cn2c(CC)nc3c(C)cc(C)nc32)ccc1OC(C(=O)O)c1ccccc1 (centres undefined) | 7.92 | 6.85
CCc1nc2c(C)cc(C)nc2n1Cc1ccc(OC(C(=O)O)c2ccccc2)c(Cl)c1 (centres undefined) | 7.82 | 6.14
CCCc1cc(Cn2c(CC)nc3c(C)cc(C)nc32)ccc1OC(C(=O)O)c1ccccc1Cl (centres undefined) | 8.10 | < 6.00
C=CCc1cc(Cn2c(CC)nc3c(C)cc(C)nc32)ccc1OC(C(=O)O)c1ccccc1 (centres undefined) | 7.70 | 6.57
CCc1cc(Cn2c(CC)nc3c(C)cc(C)nc32)ccc1OC(C(=O)O)c1ccccc1 (centres undefined) | 7.92 | 6.39
CCc1nc2c(C)cc(C)nc2n1Cc1cc(Cl)c(OC(C(=O)O)c2ccccc2)c(Cl)c1 (centres undefined) | 7.68 | 5.05
CCc1nc2c(C)cc(C)nn2c1Cc1ccc(OC(C(=O)O)c2ccccc2)cc1 (centres undefined) | 7.16 | 5.52

The remaining molecules from weak to strong by pIC50 [1], led by results:

pIC50 [1] | pIC50 [2] | Structure (SMILES)
6.59 | 6.12 | CCCCc1nc2ccc(C)cc2c(=O)n1Cc1ccc(OC(C(=O)O)c2ccccc2)cc1 (centres undefined)
6.92 | 7.22 | CCc1nc2c(C)cc(C)nc2n1Cc1ccc(OC(C(=O)O)c2ccccc2)c(C(=O)c2ccccc2)c1 (centres undefined)
7.02 | 6.10 | CCc1nc2c(C)cc(C)nc2n1Cc1ccc(OC(C(=O)O)c2ccccc2)c(Cc2ccccc2)c1 (centres undefined)
7.19 | 5.47 | CCCc1nc2c(C)ccnc2n1Cc1ccc(OC(C(=O)O)c2ccccc2)cc1 (centres undefined)
7.21 | 6.21 | CCc1nc2c(C)cc(C)nc2n1Cc1ccc(OC(C(=O)O)c2ccccc2)c(C(C)=O)c1 (centres undefined)
7.30 | 6.52 | CCc1nc2c(C)cc(C)nc2n1Cc1ccc(OC(C(=O)O)c2ccccc2)c(C(C)(C)C)c1 (centres undefined)
7.52 | 5.48 | CCc1nc2c(C)cc(C)nc2n1Cc1ccc(OC(C(=O)O)c2ccccc2)c(C(C)C)c1 (centres undefined)
7.96 | 7.33 | CCCc1cc(Cn2c(CC)nc3c(C)cc(C)nc32)ccc1OC(C(=O)O)c1ccccc1 (centres undefined)
7.96 | 5.62 | CCCc1cc(Cn2c(CC)nc3c(C)cc(C)nc32)ccc1OC(C(=O)O)c1ccccc1C (centres undefined)
8.00 | 4.82 | CCc1nc2c(C)cc(C)nc2n1Cc1ccc(OC(C(=O)O)c2ccccc2Cl)cc1 (centres undefined)
8.02 | 5.92 | CCCc1cc(Cn2c(CC)nc3c(C)cc(C)nc32)ccc1OC(C(=O)O)c1ccccc1OC (centres undefined)
8.22 | 5.28 | CCc1nc2c(C)cc(C)nc2n1Cc1ccc(OC(C(=O)O)c2ccccc2C)cc1 (centres undefined)
8.47 | 5.77 | CCc1nc2c(C)cc(C)nc2n1Cc1ccc(OC(C(=O)O)c2ccccc2C)c(Cl)c1 (centres undefined)
